For one cell line, relative viability results are on record in the supplement of paper PMC10307832.

Assay in all cases: relative viability (nuclei count vs DMSO), 5 days (fraction); higher = more cells survive
Compound in assay [1]: C[C@]1(c2nc3c(C(N)=O)cccc3[nH]2)CCCN1 [Veliparib] + Cc1nc(NC(=O)N2CCC[C@H]2C(N)=O)sc1-c1ccnc(C(C)(C)C(F)(F)F)c1 [Alpelisib] (partner 2 µM)
In outline:
(§1)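 Dosing by pin tool came one day after lung cancer cell lines were seeded in 1536-well plates, using either one drug or a fixed anchor-drug dose plus five library-drug doses (not always all listed) in √10 steps. After 5 days, nuclei were counted on 4× images. Relative viability is treated-well nuclei count divided by vehicle-well nuclei count, and values are medians of duplicate plates.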

Compound in assay [2]: C[C@]1(c2nc3c(C(N)=O)cccc3[nH]2)CCCN1 [Veliparib] + C[C@@H](Oc1cc(-c2cnn(C3CCNCC3)c2)cnc1N)c1c(Cl)ccc(F)c1Cl [Crizotinib] (partner 1 µM)
In short, it runs like this: as §1

Compound in assay [3]: COC1=CC=C(C=C1)CN2C=CC3=C2C=C(C=C3)C(=O)NO + Nc1ncn([C@H]2C[C@H](O)[C@@H](CO)O2)c(=O)n1 [Decitabine] (partner 2 µM)
In short, it runs like this: as §1

Compound in assay [4]: C[C@]1(c2nc3c(C(N)=O)cccc3[nH]2)CCCN1 [Veliparib] + C[C@]1(O)C[C@@H](c2nc(-c3ccc4ccc(-c5ccccc5)nc4c3)c3c(N)nccn32)C1 [Linsitinib] (partner 1 µM)
In outline: as §1

Take SW 1573: the relative viability in assay [1] (first compound 0.02 µM) came out at 0.803; in assay [1] (first compound 0.06325 µM) it was 0.867; in assay [1] (first compound 0.2 µM) it was 0.791; in assay [1] (first compound 0.6325 µM) it was 0.675; in assay [1] (first compound 2 µM), 0.805; in assay [2] (first compound 0.02 µM), 0.986. Moreover, the relative viability is 0.629 in assay [2] (first compound 0.06325 µM); 0.781 in assay [2] (first compound 0.2 µM); 0.85 in assay [2] (first compound 0.6325 µM); 0.79 in assay [2] (first compound 2 µM); 0.525 in assay [3] (first compound 0.253 µM); 0.59 in assay [3] (first compound 0.8 µM). Further, the relative viability was found to be 0.471 in assay [3] (first compound 2.53 µM); 0.258 in assay [3] (first compound 8 µM); 0.977 in assay [4] (first compound 0.02 µM); 0.845 in assay [4] (first compound 0.06325 µM); 0.819 in assay [4] (first compound 0.2 µM); 0.767 in assay [4] (first compound 0.6325 µM). Moreover, the relative viability in assay [4] (first compound 2 µM) was found to be 0.79.
